Tested on: clinically stable subjects with schizophrenia
Assay: Clinical Study A (Phase 2a, placebo-controlled): MATRICS Consensus Cognitive Battery (MCCB)
Assay type: in vivo, human
Conditions: for MCCB Reasoning and Problem Solving: Difference from Placebo LS Mean (SE) of Difference / MCCB Reasoning and Problem Solving: LS Mean (SE) of Change from Baseline / MCCB Reasoning and Problem Solving: Observed Mean (SD) of change from baseline / MCCB Attention/Vigilance: Difference from Placebo LS Mean (SE) of Difference / MCCB Attention/Vigilance: LS Mean (SE) of Change from Baseline / MCCB Attention/Vigilance: Observed Mean (SD) of change from baseline / MCCB Social Cognition: Difference from Placebo LS Mean (SE) of Difference / MCCB Social Cognition: LS Mean (SE) of Change from Baseline / MCCB Social Cognition: Observed Mean (SD) of change from baseline / MCCB Speed of Processing: Difference from Placebo LS Mean (SE) of Difference / MCCB Speed of Processing: LS Mean (SE) of Change from Baseline / MCCB Speed of Processing: Observed Mean (SD) of change from baseline / MCCB Verbal Learning: Difference from Placebo LS Mean (SE) of Difference / MCCB Verbal Learning: LS Mean (SE) of Change from Baseline / MCCB Verbal Learning: Observed Mean (SD) of change from baseline / MCCB Visual Learning: Difference from Placebo LS Mean (SE) of Difference / MCCB Visual Learning: LS Mean (SE) of Change from Baseline / MCCB Visual Learning: Observed Mean (SD) of change from baseline / MCCB Working Memory: Difference from Placebo LS Mean (SE) of Difference / MCCB Working Memory: LS Mean (SE) of Change from Baseline / MCCB Working Memory: Observed Mean (SD) of change from baseline: ITT
Source text: A Phase 2a proof-of-concept (POC) study in clinically stable subjects with schizophrenia who were clinically stable and received stable doses of atypical antipsychotic therapy. The study was a Phase 2, multi-center, randomized, double-blind, placebo-controlled, parallel group study designed to evaluate the safety and efficacy of doses of (4s)-4-(5-phenyl-1,3,4-thiadiazol-2-yloxy)-1-azatricyclo[3.3.1.1^3,7]decane (Compound A) in clinically stable male and female subjects (ages 20 to 55, inclusive) with a Diagnostic and Statistical Manual of Mental Disorders Fourth Edition, Text Revision (DSM-IV-TR) diagnosis of schizophrenia. Psychiatric diagnoses were confirmed using the Mini-International Neuropsychiatric Interview (MINI) version 6.0.0. The criteria for clinical stability was determined by a combination of retrospective data (over the 4 months prior to the start of Screening, which will be supported by clinical records, patient, identified responsible contact person, and physician interviews), and prospective data assessed during the Prospective Stabilization Period of 28 to 42 days duration.
The study was a Phase 2, multi-center, randomized, double-blind, placebo-controlled, parallel group study designed to evaluate the safety and efficacy of doses of (4s)-4-(5-phenyl-1,3,4-thiadiazol-2-yloxy)-1-azatrieyclo[3.3.1.1^3,7]decane, which is also recognized as Compound A, in treating cognitive deficits in subjects with schizophrenia who were clinically stable and receiving one or two atypical antipsychotic medications. Study drug was administered orally.
The study consisted of a screening period of at least 28 and up to 42 days, a 84-day outpatient treatment period, a 14-day post-treatment period, and a post-treatment follow-up period. The screening period consisted of three visits: Screening Visit 1, Screening Visit 2, and Day −1. Upon completion of Day −1 procedures, eligible subjects were randomized through an Interactive Voice Response/Interactive Web-Based (IVR/IWB) system. Subjects were randomized in an equal ratio to one of three treatment groups (placebo, 10 mg Compound A, or 25 mg Compound A).
Subjects were randomized in a 1:1:1 ratio with placebo, 10 mg QD Compound A, of 25 mg Compound A. Each subject was instructed to take study drug once-daily in the morning for 12 weeks. Each daily dose was preferably taken with food. The subject and investigator were blinded to the treatment assignment throughout the study. The treatment assignments for the study subjects are shown below in Table 1.
The primary endpoint was the MCCB composite score, and the primary endpoint analysis was the change on the MCCB composite score from baseline to endpoint versus placebo. Other secondary measures included the MCCB domains, the NSA-16, the CANTAB cognition battery (measured at different time points from the MCCB), and the UPSA-2. The Positive and Negative Syndrome Scale (PANSS) was included to document stability in schizophrenia symptomatology.
The MCCB was developed by a consortium of academic, industry, the Food and Drug Administration (FDA) and National Institute of Mental Health ([…]) members called Measurement and Treatment Research to Improve Cognition in Schizophrenia (MATRICS). The battery was established in a multiple phase process that involved experts identifying cognitive tests in the literature that had shown deficits in schizophrenia, use of factor analysis to identify key domains of cognitive deficits in schizophrenia, and then empirically identifying the best tests for each domain based on reliability, validity and feasibility for use in clinical trials. The FDA has endorsed the MCCB as an appropriate outcome measure for Phase 3 CDS trials. […]

**Q.** For `c1ccc(-c2nnc(O[C@@H]3C4CC5C[C@H]3C[N@](C5)C4)s2)cc1` [Compound A, (4s)-4-(5-phenyl-1,3,4-thiadiazol-2-yloxy)-1-azatricyclo[3.3.1.1^3,7]decane], which “MCCB Reasoning and Problem Solving: Difference from Placebo LS Mean (SE) of Difference” value (10 mg QD, Change to Week 2) is on record?
**A.** 1.24 (1.18) T-score

**Q.** And the “MCCB Reasoning and Problem Solving: LS Mean (SE) of Change from Baseline” value (10 mg QD, Change to Week 2)?
**A.** 1.99 (0.84) T-score

**Q.** And the “MCCB Reasoning and Problem Solving: Observed Mean (SD) of change from baseline” value (10 mg QD, Change to Week 2)?
**A.** 1.70 (6.03) T-score

**Q.** And the “MCCB Attention/Vigilance: Difference from Placebo LS Mean (SE) of Difference” value (10 mg QD, Change to Week 6)?
**A.** 1.29 (1.35) T-score

**Q.** What about the “MCCB Attention/Vigilance: LS Mean (SE) of Change from Baseline” value (10 mg QD, Change to Week 6) of the same compound?
**A.** 0.49 (0.98) T-score

**Q.** What about the “MCCB Attention/Vigilance: Observed Mean (SD) of change from baseline” value (10 mg QD, Change to Week 6) of the same compound?
**A.** 0.83 (7.62) T-score

**Q.** And the “MCCB Reasoning and Problem Solving: Difference from Placebo LS Mean (SE) of Difference” value (10 mg QD, Change to Week 6)?
**A.** 0.53 (1.03) T-score

**Q.** And the “MCCB Reasoning and Problem Solving: LS Mean (SE) of Change from Baseline” value (10 mg QD, Change to Week 6)?
**A.** 0.49 (0.75) T-score

**Q.** What about the “MCCB Reasoning and Problem Solving: Observed Mean (SD) of change from baseline” value (10 mg QD, Change to Week 6) of the same compound?
**A.** 0.08 (5.57) T-score

**Q.** And the “MCCB Social Cognition: Difference from Placebo LS Mean (SE) of Difference” value (10 mg QD, Change to Week 6)?
**A.** −0.46 (1.34) T-score

**Q.** And the “MCCB Social Cognition: LS Mean (SE) of Change from Baseline” value (10 mg QD, Change to Week 6)?
**A.** 1.04 (0.97) T-score

**Q.** What about the “MCCB Social Cognition: Observed Mean (SD) of change from baseline” value (10 mg QD, Change to Week 6) of the same compound?
**A.** 1.14 (7.87) T-score

**Q.** What about the “MCCB Speed of Processing: Difference from Placebo LS Mean (SE) of Difference” value (10 mg QD, Change to Week 6) of the same compound?
**A.** 0.74 (1.04) T-score

**Q.** And the “MCCB Speed of Processing: LS Mean (SE) of Change from Baseline” value (10 mg QD, Change to Week 6)?
**A.** 1.13 (0.74) T-score

**Q.** And the “MCCB Speed of Processing: Observed Mean (SD) of change from baseline” value (10 mg QD, Change to Week 6)?
**A.** 1.00 (5.49) T-score

**Q.** And the “MCCB Verbal Learning: Difference from Placebo LS Mean (SE) of Difference” value (10 mg QD, Change to Week 6)?
**A.** 0.24 (1.12) T-score

**Q.** And the “MCCB Verbal Learning: LS Mean (SE) of Change from Baseline” value (10 mg QD, Change to Week 6)?
**A.** 0.31 (0.82) T-score

**Q.** What about the “MCCB Verbal Learning: Observed Mean (SD) of change from baseline” value (10 mg QD, Change to Week 6) of the same compound?
**A.** 0.68 (7.99) T-score

**Q.** And the “MCCB Visual Learning: Difference from Placebo LS Mean (SE) of Difference” value (10 mg QD, Change to Week 6)?
**A.** 1.74 (1.57) T-score

**Q.** What about the “MCCB Visual Learning: LS Mean (SE) of Change from Baseline” value (10 mg QD, Change to Week 6) of the same compound?
**A.** 1.59 (1.13) T-score

**Q.** What about the “MCCB Visual Learning: Observed Mean (SD) of change from baseline” value (10 mg QD, Change to Week 6) of the same compound?
**A.** 1.35 (9.36) T-score

**Q.** And the “MCCB Working Memory: Difference from Placebo LS Mean (SE) of Difference” value (10 mg QD, Change to Week 6)?
**A.** 0.86 (1.03) T-score

**Q.** What about the “MCCB Working Memory: LS Mean (SE) of Change from Baseline” value (10 mg QD, Change to Week 6) of the same compound?
**A.** 0.35 (0.75) T-score

**Q.** And the “MCCB Working Memory: Observed Mean (SD) of change from baseline” value (10 mg QD, Change to Week 6)?
**A.** 0.27 (5.15) T-score

**Q.** And the “MCCB Attention/Vigilance: Difference from Placebo LS Mean (SE) of Difference” value (10 mg QD, Change to Week 12)?
**A.** 2.63 (1.49) T-score

**Q.** What about the “MCCB Attention/Vigilance: LS Mean (SE) of Change from Baseline” value (10 mg QD, Change to Week 12) of the same compound?
**A.** 0.64 (1.06) T-score

**Q.** What about the “MCCB Attention/Vigilance: Observed Mean (SD) of change from baseline” value (10 mg QD, Change to Week 12) of the same compound?
**A.** 1.15 (8.46) T-score

**Q.** And the “MCCB Social Cognition: Difference from Placebo LS Mean (SE) of Difference” value (10 mg QD, Change to Week 12)?
**A.** 0.40 (1.52) T-score

**Q.** And the “MCCB Social Cognition: LS Mean (SE) of Change from Baseline” value (10 mg QD, Change to Week 12)?
**A.** 0.99 (1.08) T-score

**Q.** And the “MCCB Social Cognition: Observed Mean (SD) of change from baseline” value (10 mg QD, Change to Week 12)?
**A.** 1.38 (6.51) T-score

**Q.** What about the “MCCB Speed of Processing: Difference from Placebo LS Mean (SE) of Difference” value (10 mg QD, Change to Week 12) of the same compound?
**A.** 1.08 (1.20) T-score

**Q.** What about the “MCCB Speed of Processing: LS Mean (SE) of Change from Baseline” value (10 mg QD, Change to Week 12) of the same compound?
**A.** 2.36 (0.85) T-score

**Q.** What about the “MCCB Speed of Processing: Observed Mean (SD) of change from baseline” value (10 mg QD, Change to Week 12) of the same compound?
**A.** 2.33 (6.05) T-score

**Q.** What about the “MCCB Verbal Learning: Difference from Placebo LS Mean (SE) of Difference” value (10 mg QD, Change to Week 12) of the same compound?
**A.** 0.61 (1.10) T-score

**Q.** What about the “MCCB Verbal Learning: LS Mean (SE) of Change from Baseline” value (10 mg QD, Change to Week 12) of the same compound?
**A.** 1.08 (0.79) T-score

**Q.** And the “MCCB Verbal Learning: Observed Mean (SD) of change from baseline” value (10 mg QD, Change to Week 12)?
**A.** 1.28 (7.06) T-score

**Q.** And the “MCCB Visual Learning: Difference from Placebo LS Mean (SE) of Difference” value (10 mg QD, Change to Week 12)?
**A.** 0.73 (1.59) T-score

**Q.** And the “MCCB Visual Learning: LS Mean (SE) of Change from Baseline” value (10 mg QD, Change to Week 12)?
**A.** 0.29 (1.12) T-score

**Q.** What about the “MCCB Visual Learning: Observed Mean (SD) of change from baseline” value (10 mg QD, Change to Week 12) of the same compound?
**A.** 0.05 (8.06) T-score

**Q.** And the “MCCB Working Memory: Difference from Placebo LS Mean (SE) of Difference” value (10 mg QD, Change to Week 12)?
**A.** 0.80 (1.18) T-score

**Q.** And the “MCCB Working Memory: LS Mean (SE) of Change from Baseline” value (10 mg QD, Change to Week 12)?
**A.** 0.92 (0.84) T-score

**Q.** What about the “MCCB Working Memory: Observed Mean (SD) of change from baseline” value (10 mg QD, Change to Week 12) of the same compound?
**A.** 0.83 (7.04) T-score

**Q.** What about the “MCCB domains with dose response relationship” value (10 mg and 25 mg, exception reasoning) of the same compound?
**A.** 6 of the 7 domains

**Q.** And the “MCCB composite score: LS mean change from baseline” value (10 mg, baseline to Week 6, MNIRIVI analysis, placebo LS mean +0.49)?
**A.** +1.25

**Q.** What about the “MCCB Reasoning and Problem Solving: Difference from Placebo LS Mean (SE) of Difference” value (25 mg QD, Change to Week 2) of the same compound?
**A.** 1.20 (1.24) T-score

From US20130317055A1, “NEURONAL NICOTINIC AGONIST AND METHODS OF USE” (ABBVIE INC., priority 2012, published 2013)
